± gives the standard deviation of the averaged measurements.
Legend:
HS-PSS [1] = experiment: drug sensitivity score (DSS, CellTiter-Glo viability, 72 h) (DSS (dimensionless)); higher = more sensitive; extreme values may be limits of the assay
How it was run: (§1)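 MPNST cell lines and primary human Schwann cells were seeded at 750–1000 cells per well into 384-well plates preprinted with each compound at five concentrations in 10-fold steps, then incubated 72 h at 37 °C, 5% CO2. CellTiter-Glo ATP luminescence gave viability, scaled between vehicle and positive-control wells, with duplicates averaged where present. Curves were fitted with a four-parameter logistic model. Percent inhibition refers to the top concentration, while drug sensitivity score and relative IC50, censored at the top concentration, come from these fits.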

S462 [2] = experiment: as above
How it was run: as §1

[3] = tested on: HSC2 (primary human Schwann cells); experiment: as above
How it was run: as §1

ST8814 [4] = experiment: as above
How it was run: as §1

STS26T [5] = experiment: as above
How it was run: as §1

S1507-2 [6] = experiment: as above
How it was run: as §1

[7] = tested on: HSC1 (primary human Schwann cells); experiment: as above
How it was run: as §1

HS-Sch-2 [8] = experiment: as above
How it was run: as §1

YST-1 [9] = experiment: as above
How it was run: as §1

HS-PSS [10] = experiment: drug sensitivity score (DSS, CellTox-Green cytotoxicity, 72 h) (DSS (dimensionless)); higher = more cytotoxic; extreme values may be limits of the assay
How it was run: (§2)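 For 72 h at 37 °C, MPNST cell lines and primary human Schwann cells were exposed in 384-well plates to five 10-fold compound dilutions. CellTox-Green, added before seeding at a final 1:1000 dilution, gave fluorescence from DNA released by disrupted cells. Signals were scaled to vehicle and positive-control wells, cultures failing plate quality control were left out, and four-parameter logistic fits were applied. Relative IC50 and drug sensitivity score were derived from the fits, with IC50 censored at the top concentration.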

[11] = tested on: HSC2 (primary human Schwann cells); experiment: as above
How it was run: as §2

ST8814 [12] = experiment: as above
How it was run: as §2

STS26T [13] = experiment: as above
How it was run: as §2

S1507-2 [14] = experiment: as above
How it was run: as §2

[15] = tested on: HSC1 (primary human Schwann cells); experiment: as above
How it was run: as §2

HS-PSS [16] = experiment: % inhibition of CellTiter-Glo viability at highest tested concentration (72 h), relative to DMSO and benzethonium chloride controls; higher = more inhibition
How it was run: as §1

S462 [17] = experiment: as above
How it was run: as §1

[18] = tested on: HSC2 (primary human Schwann cells); experiment: as above
How it was run: as §1

ST8814 [19] = experiment: as above
How it was run: as §1

STS26T [20] = experiment: as above
How it was run: as §1

S1507-2 [21] = experiment: as above
How it was run: as §1

[22] = tested on: HSC1 (primary human Schwann cells); experiment: as above
How it was run: as §1

HS-Sch-2 [23] = experiment: as above
How it was run: as §1

YST-1 [24] = experiment: as above
How it was run: as §1

Compound	drug sensitivity score (HS-PSS [1])	drug sensitivity score (S462 [2])	drug sensitivity score [3]	drug sensitivity score (ST8814 [4])	drug sensitivity score (STS26T [5])	drug sensitivity score (S1507-2 [6])	drug sensitivity score [7]	drug sensitivity score (HS-Sch-2 [8])	drug sensitivity score (YST-1 [9])	drug sensitivity score (HS-PSS [10])	drug sensitivity score [11]	drug sensitivity score (ST8814 [12])	drug sensitivity score (STS26T [13])	drug sensitivity score (S1507-2 [14])	drug sensitivity score [15]	% inhibition (HS-PSS [16]) [%]	% inhibition (S462 [17]) [%]	% inhibition [18] [%]	% inhibition (ST8814 [19]) [%]	% inhibition (STS26T [20]) [%]	% inhibition (S1507-2 [21]) [%]	% inhibition [22] [%]	% inhibition (HS-Sch-2 [23]) [%]	% inhibition (YST-1 [24]) [%]
CCn1c(C(=O)N(C2CC2)C2CC2)cc2c3c(ncn3C)c(Nc3cc(C)n(C)n3)nc21 (max concentration tested 10000 nM)	0	0	0	0	0	0.094 ± 0.13	0	0.17	2.34	0	0	0	0	0	0	8.84	0.708 ± 7.6	-0.298	7.29	2.67	3.94 ± 19	9.48	16	29.6
C[C@@H](Oc1cc(-c2cnn(C3CCNCC3)c2)cnc1N)c1c(Cl)ccc(F)c1Cl [Crizotinib] (max concentration tested 1000 nM)	2.17	0.409 ± 0.58	1.21	0	0	0.701 ± 0.72	2.09	0.41	0.85	0	0	0	0	1.38 ± 2	0	48.6	13.3 ± 4.8	20.8	7.26	1.87	13.3 ± 2.3	21.3	19.5	27.5
C[C@]12O[C@H](C[C@]1(O)CO)n1c3ccccc3c3c4c(c5c6ccccc6n2c5c31)CNC4=O [Lestaurtinib] (max concentration tested 1000 nM)	5.63	11.7 ± 0.16	13.2	6.44	5.07	9.04 ± 0.52	11.2	7.66	3.41	0	0.0333	1.63	0.547	1.52 ± 2.1	0.556	45.7	96.6 ± 1.5	51.8	62.3	54.5	76.7 ± 2.5	54.4	68.4	26.8
CCC1(c2ccc(N)cc2)CCC(=O)NC1=O (configuration not stated) [Aminoglutethimide] (max concentration tested 10000 nM)	0	0	0	0	0	0	0	0	0	0	0	0	0	0	0	1.47	-7.67 ± 7.8	-6.11	-3.31	2.67	3.35 ± 1.2	8.78	3.62	-9.69
Cn1cnc2c(F)c(Nc3ccc(Br)cc3Cl)c(C(=O)NOCCO)cc21 [Selumetinib] (max concentration tested 10000 nM)	0.02	5.86 ± 0.93	3.74	5.82	4.18	7.78 ± 3.3	2.51	2.54	0	0	0	1.43	0	0.984 ± 0.39	0	12.8	51.8 ± 5.1	44.1	51.4	33.6	50.8 ± 4.4	41.3	35.6	5.28
CC(=O)Nc1cccc(-n2c(=O)n(C3CC3)c(=O)c3c(Nc4ccc(I)cc4F)n(C)c(=O)c(C)c32)c1 [Trametinib] (max concentration tested 250 nM)	5.07	13.48 ± 0.13	8.12	12.8	7.88	10.4 ± 0.064	9.86	4.27	0	0.89	0.138	6.34	0	4.3 ± 0.49	0	46.4	85.67 ± 0.21	66.4	96.7	48.4	76.9 ± 1.3	64.5	53.5	4.55
CCNC(=O)CCC/C=C\C[C@@H]1[C@@H](/C=C/[C@@H](O)CCc2ccccc2)[C@H](O)C[C@@H]1O [Bimatoprost] (max concentration tested 5500 nM)	0.89	0.502 ± 0.71	0	0	0	0.00145 ± 0.0021	0	0.89	0	0.89	0	0	0	0	0	-11.6	9.55 ± 12	9.6	2.33	7.31	0.42 ± 0.85	2.26	-3.66	7.41
COc1nc(N)nc2c1ncn2[C@@H]1O[C@H](CO)[C@@H](O)[C@@H]1O [Nelarabine] (max concentration tested 10000 nM)	0	0	0	0	0	1.62 ± 2.3	0	0	0	0	0.0142	0	0	3.71 ± 5.2	0	-6.14	8.35 ± 0.2	4.25	-1.03	6.48	7.84 ± 7.8	1.53	6.44	-10.9

Reference: the supplement of paper PMC5579334
